In patent US20050196343A1, “Degradable nanoparticles” (Molecular Therapeutics, Inc., priority 2004, published 2005):

Tested on: intracerebral 9L gliomas
Experiment: In vivo therapy of glioma using Photofrin-containing nanoparticles with laser (diffusion MRI, Kaplan-Meier survival)
Design: species or system rat
Settings: 9L tumor rats, tail vein administration, FIG. 17
Text: Rats harboring intracerebral 9L gliomas, were allowed to grow to approximately 50 microliters in size, as quantitated using multi-slice T2-weighted MRI. Rats were divided into the following groups: sham (untreated); laser exposure only; intravenous administered photofrin (no nanoparticles); photofrin-encapsulated nanoparticles; and photofrin-encapsulated nanoparticles with F3 targeting (n=5/group). Diffusion MRI scans were obtained prior to treatment and every 2-3 days following treatment. Treatment with laser administration consisted of 750 mW of laser light administered at 630 nm for 7.5 minutes of total exposure time. This was accomplished through the same 1 mm diameter burr hole which was initially made to inject the 9L tumor cells to initiate tumor growth. The depth of the cylindrical laser tip was adjusted, based upon the MRI scan data, to be at the base of the tumor mass in order to optimize light delivery to the overall tumor mass. Diffusion MRI scans were acquired in order to assess in real time, the effectiveness of treatment. Increased diffusion values within the tumor mass reflect areas of cell kill (necrosis) and the magnitude of the increase is proportional to the level of cell killing. As shown in the MRI scans in FIG. 15, control diffusion tumor values are on average at approximately 100 apparent diffusion coefficient units (ADC).

Substance: Photofrin
- survival times (Kaplan-Meier): no significant differences in survival times
